Measured values taken from a melting point compilation (Tetko et al.; mined from patent text by program, amines drawn as free bases though some values may be those of a salt).

First: Cc1c(NC(=O)CC(C)(C)C)c2c(c3c1C(c1ccc(C(C)C)cc1)CO3)CCC2 (stereo not given)
Second: COC(=O)C[C@@H](CC(=O)/C=C/c1c(-c2ccc(F)cc2)c(-c2ccc(F)cc2)c(C(=O)Nc2cccc(C(=O)N(C)C)c2)n1C(C)C)O[Si](C)(C)C(C)(C)C
The melting point of the first is higher: 201 to 202 °C for the first, 135 to 137 °C for the second.

Compared with `NC(Cc1c[nH]c2c(Br)cccc12)C(=O)O` (stereo not given), `COC(=O)c1c(OC)ccc(N)c1OC` is lower in melting point: greater than 260 °C for the first, 78 to 80 °C for the second.

First: CCOC(=O)c1cc(CC#N)c(C)s1
Second: CCOC(=O)C=Cc1ccc(C)nc1
The melting point of the first is higher: 55 to 57 °C for the first, 36 to 37 °C for the second.

First: CC(C)(C)OC(=O)NCC(=O)OCCCNc1cccc2c1C(=O)c1ccccc1C2=O
Second: CCCNC(=O)C1(CCCc2ccc(N3C(=O)c4ccccc4C3=O)cc2)c2ccccc2-c2ccccc21
The melting point of the first is lower: 84 °C for the first, 148 to 151 °C for the second.

Compared with `CNC(=O)CCN1c2ccccc2N2CCc3cccc(c32)C1C` (stereo not given), `CCS(=O)(=O)CCC(=O)NNC(=O)N1Cc2ccccc2Oc2ccc(OC)cc21` is higher in melting point: 143 to 145 °C for the first, 187 to 190 °C for the second.

Compared with `CN1CCN(C(=O)Oc2ccccc2)C1=C(C(=O)Oc1ccccc1)[N+](=O)[O-]`, `Nc1ccc(S(=O)(=O)Oc2ccccc2)cc1[N+](=O)[O-]` is lower in melting point: 214 to 215 °C for the first, 104 °C for the second.

First: Cc1cc(-c2nnc3c4ccccc4c(OCc4cscn4)nn23)no1
Second: CCc1cc2c(-c3ccccc3Cl)c([N+](=O)[O-])cnc2s1
The melting point of the first is higher: 227 to 229 °C for the first, 72 to 73 °C for the second.

First: O=c1[nH]c(-c2csc3ccccc23)nc2ccc(N3CCOCC3)cc12
Second: c1cnc2[nH]cc(CN3CCc4ccc(-c5ccsc5)cc4C3)c2c1
The melting point of the first is higher: greater than 300 °C for the first, 228 to 230 °C for the second.

Compared with `C/C(=C\c1ccc(OC(C)C)cc1Oc1ncc(C(F)(F)F)cc1Cl)C(=O)NS(=O)(=O)NCCc1ccccn1`, `O=C(O)c1ccc(OCCNC(=O)C2Cc3ccccc3N2S(=O)(=O)c2ccc(-c3cccc(C(F)(F)F)c3)cc2)cc1Cl` (stereo not given) is lower in melting point: 121 to 123 °C for the first, 104 to 108 °C for the second.

First: S=c1nc(-c2cc(Cl)sc2Cl)[nH]n1Cc1ccccc1
Second: CNC1=Nc2ccc(Cl)cc2C(c2ccccc2Cl)=NC1
The melting point of the first is lower: 160 to 162 °C for the first, 216 to 219 °C for the second.

Compared with `CC(=O)NCc1cn(-c2ccc(-n3cncn3)c(F)c2)nn1`, `CC1(C)OC(=O)N(c2ccc(F)c(F)c2)c2ccccc21` is lower in melting point: 223 °C for the first, 207 to 208 °C for the second.

Compared with `CCN1C(=O)C2CC(c3ccc([N+](=O)[O-])cc3)(C2)C1=O`, `CCc1ccccc1CC1CNC(=O)O1` (stereo not given) is lower in melting point: 175 to 179 °C for the first, 104 to 105 °C for the second.

First: CCn1cc(-c2cnccn2)cc(Br)c1=O
Second: Cn1c(-c2ccccc2)nc2cnc3ccccc3c21
The melting point of the first is lower: 129 to 132 °C for the first, 168 to 170 °C for the second.

First: O=C(O)CCC(CC1(C(=O)NC2CCC(C(=O)OCc3ccccc3)CC2)CCCC1)C(=O)OCc1ccccc1 (stereo not given)
Second: O=C(CC1CCN(Cc2ccccc2)CC1)c1ccc(CO)cc1
The melting point of the first is lower: 103 to 104 °C for the first, 154 to 155 °C for the second.

First: O=c1cc(C(F)(F)F)[nH]c(=O)n1-c1ccc(F)c(F)c1F
Second: O=CCCCCC(=O)Nc1ccc(C(F)(F)F)cc1
The melting point of the first is higher: 137 to 138 °C for the first, 130 to 131 °C for the second.

Compared with `O=C1Cc2cc(NCCCc3ccccc3)ccc2N1`, `Cc1ccc(-c2ccc3c(c2)C=C(C(=O)Nc2ccc(CN4CCC(Cc5ccccc5)CC4)cc2)CC3)cc1` is higher in melting point: 120 to 122 °C for the first, 199 to 201 °C for the second.

Compared with `OC1CCC2(CC1)CCC(CCc1ccoc1)CC2` (stereo not given), `CC(=O)CCc1nc2ccc3c(c2o1)C(CCNC(C)=O)CC3` (stereo not given) is higher in melting point: 66 to 69 °C for the first, 111 to 112 °C for the second.

First: CN(C)CCc1cn(Cc2ccccc2)c2ccc(C(C#N)S(=O)(=O)N(C)C(c3ccccc3)c3ccccc3)cc12 (stereo not given)
Second: CS(=O)(=O)c1ccc(OC(Cc2ccc(OCCNC(=O)c3ccc(-c4ccccn4)cc3)cc2)C(=O)O)cc1 (stereo not given)
The melting point of the first is lower: 98 to 100 °C for the first, 231 to 233 °C for the second.

First: CC(C)(N=C=O)c1ccc2cc(C(C)(C)N=C=O)ccc2c1
Second: CC(=O)Nc1nc(-c2ccc(NS(C)(=O)=O)c(Oc3ccc(F)cc3F)c2)cs1
The melting point of the first is lower: 85.5 to 87 °C for the first, 192 to 193 °C for the second.

Compared with `Cn1cccc1-c1cc(O)c2ncccc2c1O`, `COc1cc(-c2cc3ccccc3[nH]2)cc(OC)c1O` is higher in melting point: 142 to 143 °C for the first, 230 °C for the second.

First: Nc1nc(O)c2ncn(C=C3CC3CO)c2n1 (stereo not given)
Second: Cc1nc2c(Cl)cc(Cl)cc2c(=O)n1C1CCC(=O)NC1=O (stereo not given)
The melting point of the first is lower: 218 to 221 °C for the first, 238 to 240 °C for the second.

Compared with `O=C(Nc1c[nH]nc1C(=O)NCC(F)(F)F)c1ccccn1`, `NC(=O)C1CN(CC(=O)Nc2c(Cl)cccc2Cl)CCN1` (stereo not given) is lower in melting point: 235 to 236 °C for the first, 180 to 183 °C for the second.

Compared with `O=C(NCN1CCCCCCCC1=O)NCN1CCCC1=O`, `CN1CCN(c2ccc(C(=O)NCCCCCCCCCCCO[N+](=O)[O-])cn2)CC1` is lower in melting point: 149 to 150 °C for the first, 95 to 96 °C for the second.

First: N=S1C(n2c(S)nnc2-c2ccc(O)cc2)=CC=C1[N+](=O)[O-] (stereo not given)
Second: CCc1ccccc1NC=C1C(=O)N(c2ccc(C(N)=O)cc2)N=C1C
The melting point of the first is higher: 275 to 276 °C for the first, 225 °C for the second.

First: OC(Cn1ccnc1)c1ccccc1 (stereo not given)
Second: CC=CCn1c(C)c(C)c2cnnc(OCc3ccc(F)cc3)c21
The melting point of the first is higher: 146 to 148 °C for the first, 93 to 103 °C for the second.
